# Assay results: patent US20220168310A1, “INHIBITION OF ADENOVIRUS WITH FILOCICLOVIR” (Microbiotix, Inc., priority 2019, published 2022)
# Read-outs that look alike come from different tables or passages of the source.
# Assays:
# [1] = test system: human foreskin fibroblast (HFF) cells; assay: Cytotoxicity, CellTiter-Glo cell viability assay in HFF cells
# Protocol: (§1) Human foreskin tissue was obtained from the University of Alabama at Birmingham tissue procurement facility with approval from the Institutional Review Board. The tissue was stored at 4° C. in cell culture medium consisting of minimum essential media (MEM) with Earle's salts supplemented with 10% fetal bovine serum (FBS; HyClone, Inc., Logan, Utah) and standard concentration of L-glutamine, amphotericin B (Fungizone), and vancomycin. The tissue was then placed in a phosphate-buffered saline solution, minced, and rinsed to remove the red blood cells. Tissue fragments were then resuspended in a trypsin-EDTA solution and incubated at 37° C. to disperse the cells, which were then collected by centrifugation. Cell pellets were then resuspended in 4 ml culture medium, placed in a 25-cm^2 tissue culture flask, and incubated at 37° C. for 24 h. The culture medium was then replaced with fresh medium and condition of the cells was monitored daily until a confluent cell monolayer was formed. The HFF cells were then expanded through serial passages in standard growth medium of MEM with Earle's salts supplemented with 10% FBS, L-glutamine, penicillin, and gentamicin. Each lot of cells was confirmed to be free of mycoplasma infection and routinely passaged or used for assays at or before passage 10.
# (§2) Antiviral and cytotoxicity data were obtained in a series of three to five separate experiments for each virus to provide an accurate estimate of antiviral activity and statistical data. Each assay included positive and negative control compounds as well as infected and uninfected controls to ensure the integrity of the experiment.
# (§3) The CPE reduction assays were performed in monolayers of human foreskin fibroblast (HFF) cells (5000/well) in 384-well plates in assay media consisting of MEM with Earle's salts, 2% FBS and standard concentrations of L-glutamine, penicillin and gentamycin. 5000 cells were seeded in 384-well microtiter plates and incubated at 37° C. in a humidified 5% CO2 incubator for 24 hours to allow for formation of confluent monolayers.
# (§4) Cell monolayers were infected at a multiplicity of infection (MOI) of approximately 0.005 PFU/cell with virus strains including AdV5. […] Cytopathology was determined by the addition of CellTiter-Glo® reagent (Promega, Madison, Wis.). Concentrations of antiviral test compounds sufficient to reduce CPE by 50% (EC50) were interpolated from the experimental data using standard methods in Microsoft® Excel.
# Adenovirus 5 (AdV5) = assay: Cytopathic effects (CPE) reduction assay, AdV5 in HFF cells, 384-well; assay type: cell-based, human adenovirus; details: for SI: CC50/EC50, AdV5
# [2] = Cytotoxicity, CellTiter-Glo cell viability assay in HFF cells; details: human
# Protocol: as §1, §2, §3, §4
# AdV5 = details: background, Kinchington et al 2005 cited; read-out: IC50 against AdV5; cited from earlier work
# Human AdV6 [3] = assay: Low dose filociclovir against intravenously administered AdV6 in immunosuppressed hamsters (Example 6)
# Protocol: Three dose levels were tested: 1, 3, and 10 mg/kg p.o. q.d.
# All hamsters were immunosuppressed using cyclophosphamide (CP) administered intraperitoneally at a dose of 140 mg/kg, and then twice weekly at a dose of 100 mg/kg. Filociclovir in powdered form was suspended in 0.4% carboxymethyl cellulose (Sigma C5678) at 0.1, 0.3, and 1.0 mg/ml and sonicated to visual homogeneity. Filociclovir was made up once weekly, aliquoted into daily portions, and stored at 4° C. Aliquots were allowed to equilibrate to room temperature before dosing.
# Hamsters were distributed into 7 groups, 15 hamsters/group (see Table 4), immunosuppressed as described above, and injected i.v. with vehicle (Groups 1-2) or 4×10^10 PFU/kg of AdV6 (Groups 3-7). Groups 1 and 3 received drug vehicle (p.o. q.d.), Groups 2 and 6 received 10 mg/kg filociclovir (p.o. q.d.), Group 4 received 3 mg/kg filociclovir (p.o. q.d.), Group 5 received 1 mg/kg filociclovir (p.o. q.d.), and Group 7 received cidofovir (one dose of 37 mg/kg, followed by 20 mg/kg doses 3 times weekly). For all groups, drug administration started 1 day before challenge, and continued according to the schedule above for the duration of the study.
# The body weights and any signs of morbidity of the animals were monitored and recorded daily. At 5 days post challenge, 5 hamsters (designated at the start of the experiment) from each group were sacrificed, and gross pathological observation was performed. Serum and liver were collected and virus burden in liver was determined by TCID50 assay and the serum was analyzed for transaminase levels. The remaining 10 hamsters were sacrificed at 14 days post challenge. Hamsters that became moribund before Day 14 were sacrificed as needed. In addition to the animals judged moribund by observation, we sacrificed all hamsters that lost more than 20% of their original body weight. For all animals, liver tissue was preserved in formalin for histopathological examination.
# Human AdV6 [4] = assay: High dose filociclovir against intravenously administered AdV6 in immunosuppressed hamsters (Example 5); details: 5 days post challenge, CDV 20 mg/kg 3 times weekly
# Protocol: Four dose levels were tested: 10, 30, 60, and 100 mg/kg p.o. q.d. The highest dose was determined based on rat toxicology data.
# All hamsters were immunosuppressed using cyclophosphamide (CP). CP was administered intraperitoneally at a dose of 140 mg/kg, and then twice weekly at a dose of 100 mg/kg.
# Filociclovir, in powdered form, was suspended in 0.4% carboxymethyl cellulose (Sigma C5678) at 1, 3, 6, and 10 mg/ml and sonicated to visual homogeneity and aliquots stored at 4° C. Aliquots were allowed to equilibrate to room temperature before dosing. Hamsters weighing approximately 100 g were dosed with a 1 ml volume of the appropriate suspension for the 10, 30, 60, and 100 mg/kg dose levels. References to “vehicle” refers to 0.4% carboxymethyl cellulose
# The hamsters were divided into 8 groups, 15 hamsters/group, (with the exception of Group 2, which had only 5 hamsters; see Table 3), immunosuppressed, and then injected i.v. with vehicle (Groups 1-2) or 2×10^10 PFU/kg of AdV6 (Groups […]). Groups 1 and 3 received drug vehicle (p.o. q.d.), Group 4 received 10 mg/kg filociclovir (p.o. q.d.), Group 5 received 30 mg/kg filociclovir (p.o. q.d.), Group 6 received 60 mg/kg filociclovir (p.o. q.d.), Groups 2 and 7 received 100 mg/kg filociclovir (p.o. q.d.), and Group 8 received cidofovir (20 mg/kg, 3 times weekly). For all groups, drug administration started 1 day before challenge, and continued according to the schedule above for the duration of the study.
# The body weights and any signs of morbidity of the animals were recorded daily. At 5 days post challenge, 5 hamsters (designated at the start of the experiment) from each group (with the exception of Group 2) were sacrificed, and gross pathological observation was performed. Serum and liver samples were collected and the virus burden in liver was determined by a TCID50 assay, and the serum was analyzed for transaminase levels. The remaining 10 hamsters were sacrificed at 14 days post challenge. Hamsters that became visually moribund before Day 14 were sacrificed as needed. In addition to the hamsters observed to be moribund, all hamsters that lost more than 20% of their original body weight were also sacrificed. For the hamsters sacrificed at the conclusion of the experiment and those sacrificed as moribund, serum and liver tissues were collected and banked for possible determination of serum transaminase levels and virus burden in the liver. Liver tissue was preserved in formalin for possible histopathological examination.
# [5] = AdV5, HFF cells, 384 well CPE, average and SD from five independent experiments, read-out: EC50
# [6] = HFF cells, run with AdV5 assay, average and SD from five independent experiments
# [7] = human foreskin fibroblast (HFF) cell monolayers, CC50, HFF cells, run with AdV5 assay, average and SD from five independent experiments
# [8] = Human mastadenovirus C, AdV5, HFF cells, 384 well CPE, average and SD from five independent experiments, read-out: EC50
Structure (SMILES),EC50 (Adenovirus 5 (AdV5); [5]),SI (Adenovirus 5 (AdV5)),"CC50 [2, 7]",EC50 (Adenovirus 5 (AdV5); [8]),further results
"O=c1[nH]c(=O)n([C@@H]2CO[C@H](CO)O2)cc1/C=C/Br [L-BHDU, L-Bromovinyl-Hydroxymethyl-Dioxolan Uracil]",> 100 µM,1.0,–,–,CC50 [1]: > 100 µM
"Cc1cn([C@H]2C[C@H](O)[C@]3(CO)C[C@H]23)c(=O)[nH]c1=O [N-MCT, N-methanocarbathymidine]",57 ± 47 µM,1.3,–,–,"CC50 [1, 6]: 72 ± 33 µM"
"Nc1nc2c(ncn2CCC(CO)CO)c(=O)[nH]1 [PCV, penciclovir]",–,1.0,> 100 µM,> 100 µM,–
"OC[C@H]1O[C@@H](n2c(Br)nc3cc(Cl)c(Cl)cc32)[C@H](O)[C@@H]1O [BDCRB, bromodichlororibobenzimidazole]",70 ± 39 µM,1.3,–,–,"CC50 [1, 6]: 91 ± 13 µM"
"Nc1nc2c(ncn2COCCO)c(=O)[nH]1 [ACV, acyclovir]",–,1.0,> 100 µM,> 100 µM,–
"O=c1[nH]c(=O)n([C@H]2C[C@H](O)[C@@H](CO)O2)cc1I [IDU, idoxuridine]",–,1.0,> 100 µM,> 100 µM,–
"Nc1nc(O)c2ncn(COC(CO)CO)c2n1 [GCV, ganciclovir]",–,–,> 100 µM,–,"IC50 (AdV5): 66 ± 15.1 µM; EC50 (Adenovirus 5 (AdV5); Human mastadenovirus C, HFF): 66 ± 15.1 µM; IC50 (Adenovirus 5 (AdV5); Human mastadenovirus C, HFF, read-out: IC50 value against AdV5): 66 µM"
"CCCCCCCCCCCCCCCCOCCCOP(=O)(O)CO[C@H](CO)Cn1ccc(N)nc1=O [CMX001, brincidofovir]",–,27.7,0.83 ± 0.7 µM,< 0.03 µM,–
"Nc1ccn(C[C@@H](CO)OCP(=O)(O)O)c(=O)n1 [CDV, cidofovir, reference compound]",–,–,97 ± 4 µM,–,"AdV6-induced liver damage, serum transaminase (ALT) (Human AdV6 [3]; CDV, 5 days post challenge): completely prevented AdV6-induced liver pathology; AdV6 replication in the liver (Human AdV6 [3]; CDV, 5 days post challenge, TCID50): completely prevented AdV6 replication in the liver; body weight loss (Human AdV6 [3]; cidofovir 37 mg/kg once, then 20 mg/kg 3 times weekly): completely reversed body weight loss; animals with elevated serum transaminase levels (ALT) (Human AdV6 [4]; filociclovir p.o. q.d. groups): none; virus burden in the liver (Human AdV6 [4]; TCID50): very low to nonquantifiable levels; EC50 (Adenovirus 5 (AdV5); Human mastadenovirus C, HFF): 4 ± 2 µM"
"Nc1ncnc2c1ncn2CCOCP(=O)(O)O [PMEA, adefovir]",–,2.1,–,48 ± 8 µM,CC50 [2]: > 100 µM
"O=C(O)P(=O)(O)O [PFA, foscarnet]",–,1.0,> 1000 µM,> 1000 µM,–
O=c1[nH]c(=O)n([C@@H]2O[C@H](CO)[C@@H](O)[C@@H]2F)cc1I [FIAU],> 100 µM,1.0,–,–,CC50 [1]: > 100 µM
